Assay results as given in ChEMBL document CHEMBL3991601, “The target landscape of clinical kinase drugs” (Science, 2017).
Activity calls are given as the source filed them. Cut-off read from the data, not from the text of the source, for most assays here: actives have a measured Kd and inactives only a lower limit.

Key:
[1] = biological target: Non-receptor tyrosine-protein kinase TYK2 (Homo sapiens, UniProt P29597)
[2] = biological target: T1, Serine/threonine-protein kinase TBK1 (Homo sapiens, UniProt Q9UHD2)
T1 sequence (Q9UHD2 whole entry): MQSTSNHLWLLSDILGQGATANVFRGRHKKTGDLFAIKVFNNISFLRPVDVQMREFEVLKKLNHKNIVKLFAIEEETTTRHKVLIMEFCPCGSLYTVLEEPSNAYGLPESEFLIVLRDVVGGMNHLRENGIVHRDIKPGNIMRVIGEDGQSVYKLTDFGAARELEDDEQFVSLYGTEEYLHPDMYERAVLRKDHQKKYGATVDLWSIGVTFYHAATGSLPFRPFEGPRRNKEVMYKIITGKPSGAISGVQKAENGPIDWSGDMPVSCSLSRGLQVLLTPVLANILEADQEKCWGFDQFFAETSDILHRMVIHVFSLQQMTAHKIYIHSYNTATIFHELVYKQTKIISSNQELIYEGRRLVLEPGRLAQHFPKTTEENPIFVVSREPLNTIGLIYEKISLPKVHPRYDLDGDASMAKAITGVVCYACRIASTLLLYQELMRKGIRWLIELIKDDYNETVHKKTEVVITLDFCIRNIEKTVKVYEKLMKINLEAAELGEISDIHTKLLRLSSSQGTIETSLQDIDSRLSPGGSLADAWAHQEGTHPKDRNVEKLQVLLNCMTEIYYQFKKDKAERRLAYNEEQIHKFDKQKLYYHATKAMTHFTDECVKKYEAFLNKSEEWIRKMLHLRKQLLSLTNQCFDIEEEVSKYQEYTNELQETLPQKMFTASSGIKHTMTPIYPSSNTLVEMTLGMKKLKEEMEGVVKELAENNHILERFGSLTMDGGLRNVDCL

[3] = biological target: T2, DNA replication licensing factor MCM4 (Homo sapiens, UniProt P33991)
T2 sequence (P33991 whole entry): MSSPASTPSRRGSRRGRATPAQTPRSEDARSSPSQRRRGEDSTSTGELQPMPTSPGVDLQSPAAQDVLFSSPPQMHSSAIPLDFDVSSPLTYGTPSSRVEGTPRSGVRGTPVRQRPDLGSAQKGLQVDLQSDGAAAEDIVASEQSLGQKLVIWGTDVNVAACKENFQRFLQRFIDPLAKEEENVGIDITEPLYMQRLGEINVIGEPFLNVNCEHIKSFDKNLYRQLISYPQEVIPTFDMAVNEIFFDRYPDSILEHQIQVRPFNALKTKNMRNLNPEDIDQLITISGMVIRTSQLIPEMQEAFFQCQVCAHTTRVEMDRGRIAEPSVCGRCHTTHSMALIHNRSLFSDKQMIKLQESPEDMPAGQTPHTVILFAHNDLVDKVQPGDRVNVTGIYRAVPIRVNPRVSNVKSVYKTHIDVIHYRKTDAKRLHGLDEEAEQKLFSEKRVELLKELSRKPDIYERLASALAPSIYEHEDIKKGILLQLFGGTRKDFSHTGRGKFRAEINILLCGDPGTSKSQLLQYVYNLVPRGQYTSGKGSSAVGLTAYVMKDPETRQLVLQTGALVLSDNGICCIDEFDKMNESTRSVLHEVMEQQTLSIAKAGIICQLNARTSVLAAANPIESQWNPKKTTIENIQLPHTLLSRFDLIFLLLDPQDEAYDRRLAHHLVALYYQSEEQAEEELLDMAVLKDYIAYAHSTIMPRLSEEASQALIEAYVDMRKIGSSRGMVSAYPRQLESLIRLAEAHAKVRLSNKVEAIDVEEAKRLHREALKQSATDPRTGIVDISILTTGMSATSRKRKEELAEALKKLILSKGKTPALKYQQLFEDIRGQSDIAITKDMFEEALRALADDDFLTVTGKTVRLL

[4] = biological target: Citron Rho-interacting kinase (Homo sapiens, UniProt O14578)
Sequence of Citron Rho-interacting kinase (O14578 whole entry): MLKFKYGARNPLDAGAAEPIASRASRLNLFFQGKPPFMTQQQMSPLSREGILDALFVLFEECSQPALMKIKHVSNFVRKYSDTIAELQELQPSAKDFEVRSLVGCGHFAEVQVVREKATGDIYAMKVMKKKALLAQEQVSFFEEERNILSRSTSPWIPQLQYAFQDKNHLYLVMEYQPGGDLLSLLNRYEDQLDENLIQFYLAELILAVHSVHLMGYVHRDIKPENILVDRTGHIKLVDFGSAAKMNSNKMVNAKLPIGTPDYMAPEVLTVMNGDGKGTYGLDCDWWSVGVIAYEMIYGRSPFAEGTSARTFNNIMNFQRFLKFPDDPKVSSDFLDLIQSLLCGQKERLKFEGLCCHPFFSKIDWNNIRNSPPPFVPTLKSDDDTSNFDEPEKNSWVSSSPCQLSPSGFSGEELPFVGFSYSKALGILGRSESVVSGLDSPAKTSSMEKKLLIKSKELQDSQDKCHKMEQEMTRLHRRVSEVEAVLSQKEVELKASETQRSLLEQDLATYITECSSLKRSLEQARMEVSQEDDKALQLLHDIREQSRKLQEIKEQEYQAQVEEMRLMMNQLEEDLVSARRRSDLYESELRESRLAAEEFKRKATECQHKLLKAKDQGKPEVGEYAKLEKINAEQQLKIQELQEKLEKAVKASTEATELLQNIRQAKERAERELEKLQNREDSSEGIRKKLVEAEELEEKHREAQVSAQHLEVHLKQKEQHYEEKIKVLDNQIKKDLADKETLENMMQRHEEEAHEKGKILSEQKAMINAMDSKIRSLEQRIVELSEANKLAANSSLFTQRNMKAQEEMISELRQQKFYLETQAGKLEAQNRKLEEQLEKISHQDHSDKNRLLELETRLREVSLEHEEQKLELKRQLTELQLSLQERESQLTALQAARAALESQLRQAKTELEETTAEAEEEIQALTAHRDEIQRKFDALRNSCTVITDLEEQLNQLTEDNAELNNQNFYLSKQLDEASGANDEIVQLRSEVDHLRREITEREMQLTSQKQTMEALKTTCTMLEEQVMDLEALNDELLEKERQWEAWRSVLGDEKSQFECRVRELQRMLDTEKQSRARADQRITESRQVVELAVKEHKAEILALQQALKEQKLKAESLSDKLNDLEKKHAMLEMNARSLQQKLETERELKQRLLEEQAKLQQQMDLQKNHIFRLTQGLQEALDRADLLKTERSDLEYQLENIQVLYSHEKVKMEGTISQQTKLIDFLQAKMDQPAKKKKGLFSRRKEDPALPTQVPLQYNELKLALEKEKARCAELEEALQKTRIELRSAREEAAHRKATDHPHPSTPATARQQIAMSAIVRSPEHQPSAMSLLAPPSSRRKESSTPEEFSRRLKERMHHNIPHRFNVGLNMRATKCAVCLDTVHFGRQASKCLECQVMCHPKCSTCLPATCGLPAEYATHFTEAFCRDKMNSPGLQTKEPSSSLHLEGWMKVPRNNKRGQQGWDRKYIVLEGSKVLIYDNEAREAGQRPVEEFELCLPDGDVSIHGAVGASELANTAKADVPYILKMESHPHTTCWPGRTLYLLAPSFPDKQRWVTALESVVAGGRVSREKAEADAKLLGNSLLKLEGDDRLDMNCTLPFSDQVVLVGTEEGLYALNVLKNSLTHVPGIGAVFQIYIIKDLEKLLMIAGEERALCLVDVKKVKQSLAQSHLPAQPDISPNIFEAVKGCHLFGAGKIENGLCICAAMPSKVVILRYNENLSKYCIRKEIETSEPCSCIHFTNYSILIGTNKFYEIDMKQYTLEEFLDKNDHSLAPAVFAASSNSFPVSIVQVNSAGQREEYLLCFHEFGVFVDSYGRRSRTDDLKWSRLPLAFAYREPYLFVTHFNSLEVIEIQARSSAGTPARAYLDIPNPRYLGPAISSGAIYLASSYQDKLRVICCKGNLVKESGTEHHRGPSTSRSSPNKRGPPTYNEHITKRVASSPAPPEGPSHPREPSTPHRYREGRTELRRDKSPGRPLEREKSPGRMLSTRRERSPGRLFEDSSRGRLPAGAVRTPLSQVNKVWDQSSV

[5] = biological target: T3, Serine/threonine-protein kinase Nek9 (Homo sapiens, UniProt Q8TD19)
T3 sequence (Q8TD19 whole entry): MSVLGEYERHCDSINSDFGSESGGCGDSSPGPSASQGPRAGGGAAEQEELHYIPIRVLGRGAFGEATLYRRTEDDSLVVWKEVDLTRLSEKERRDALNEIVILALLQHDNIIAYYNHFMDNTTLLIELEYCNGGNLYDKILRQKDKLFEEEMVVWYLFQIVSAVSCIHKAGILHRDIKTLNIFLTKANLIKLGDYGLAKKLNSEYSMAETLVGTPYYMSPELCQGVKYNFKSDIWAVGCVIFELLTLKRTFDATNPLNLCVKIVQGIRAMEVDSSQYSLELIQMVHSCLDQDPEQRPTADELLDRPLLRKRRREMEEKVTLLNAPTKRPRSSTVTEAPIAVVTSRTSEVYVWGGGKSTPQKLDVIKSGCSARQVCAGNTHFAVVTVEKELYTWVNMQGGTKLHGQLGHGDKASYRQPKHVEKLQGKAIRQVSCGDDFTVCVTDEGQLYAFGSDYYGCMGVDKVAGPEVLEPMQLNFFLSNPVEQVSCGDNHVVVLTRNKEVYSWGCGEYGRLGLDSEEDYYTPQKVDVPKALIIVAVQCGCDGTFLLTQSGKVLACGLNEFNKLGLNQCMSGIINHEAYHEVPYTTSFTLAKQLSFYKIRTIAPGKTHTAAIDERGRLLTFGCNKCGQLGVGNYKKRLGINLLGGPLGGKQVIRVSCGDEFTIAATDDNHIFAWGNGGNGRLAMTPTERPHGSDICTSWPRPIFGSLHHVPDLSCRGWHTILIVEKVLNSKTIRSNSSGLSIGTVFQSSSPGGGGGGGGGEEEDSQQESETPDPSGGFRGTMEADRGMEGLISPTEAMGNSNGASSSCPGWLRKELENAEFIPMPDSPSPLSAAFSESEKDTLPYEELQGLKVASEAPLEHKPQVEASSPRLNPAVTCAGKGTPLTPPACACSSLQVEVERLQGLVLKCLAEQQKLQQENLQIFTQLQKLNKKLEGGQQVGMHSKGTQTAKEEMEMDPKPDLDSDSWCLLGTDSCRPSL

[6] = biological target: Tyrosine-protein kinase CSK (Homo sapiens, UniProt P41240)
Note: in the data inactive means no Kd found up to 30 µM.

Sequence of Non-receptor tyrosine-protein kinase TYK2 (P29597 whole entry): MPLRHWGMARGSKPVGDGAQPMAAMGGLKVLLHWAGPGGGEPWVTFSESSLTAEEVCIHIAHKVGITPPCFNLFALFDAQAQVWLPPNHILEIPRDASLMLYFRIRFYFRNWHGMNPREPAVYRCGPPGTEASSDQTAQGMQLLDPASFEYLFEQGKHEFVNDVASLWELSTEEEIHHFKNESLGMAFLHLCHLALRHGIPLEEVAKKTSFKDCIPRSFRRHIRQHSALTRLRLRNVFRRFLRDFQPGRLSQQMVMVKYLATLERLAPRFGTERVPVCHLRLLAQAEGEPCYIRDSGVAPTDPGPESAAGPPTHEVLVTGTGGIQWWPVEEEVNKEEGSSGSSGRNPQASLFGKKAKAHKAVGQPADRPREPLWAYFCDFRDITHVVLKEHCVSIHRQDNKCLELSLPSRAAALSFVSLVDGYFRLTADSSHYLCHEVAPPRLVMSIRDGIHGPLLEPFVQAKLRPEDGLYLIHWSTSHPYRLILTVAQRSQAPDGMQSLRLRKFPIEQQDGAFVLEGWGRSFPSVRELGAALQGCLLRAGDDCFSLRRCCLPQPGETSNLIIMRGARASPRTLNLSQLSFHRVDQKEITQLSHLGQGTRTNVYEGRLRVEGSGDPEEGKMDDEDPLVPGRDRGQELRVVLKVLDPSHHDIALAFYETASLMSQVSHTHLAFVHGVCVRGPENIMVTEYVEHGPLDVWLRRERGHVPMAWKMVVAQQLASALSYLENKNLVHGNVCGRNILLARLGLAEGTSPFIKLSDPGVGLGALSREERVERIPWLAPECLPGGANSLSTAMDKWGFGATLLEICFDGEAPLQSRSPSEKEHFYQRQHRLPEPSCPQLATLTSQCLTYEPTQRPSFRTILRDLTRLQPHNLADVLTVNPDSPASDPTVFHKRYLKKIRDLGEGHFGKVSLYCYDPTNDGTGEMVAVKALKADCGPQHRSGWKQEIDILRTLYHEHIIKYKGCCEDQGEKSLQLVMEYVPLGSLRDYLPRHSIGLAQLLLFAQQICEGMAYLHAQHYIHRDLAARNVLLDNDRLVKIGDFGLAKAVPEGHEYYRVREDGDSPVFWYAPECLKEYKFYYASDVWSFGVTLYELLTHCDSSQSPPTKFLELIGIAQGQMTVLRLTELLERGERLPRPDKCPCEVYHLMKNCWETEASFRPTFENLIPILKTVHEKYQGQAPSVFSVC

| Kd [1] | Kd [2] | Kd [3] | Kd [4] | Kd [6] | Compound | Kd [5] |
| --- | --- | --- | --- | --- | --- | --- |
| > 30 µM (inactive) | > 30 µM (inactive) | > 30 µM (inactive) | > 30 µM (inactive) | > 30 µM (inactive) | CO[C@H]1C[C@@H]2CC[C@@H](C)[C@@](O)(O2)C(=O)C(=O)N2CCCC[C@H]2C(=O)O[C@H]([C@H](C)C[C@@H]2CC[C@@H](OCCO)[C@H](OC)C2)CC(=O)[C@H](C)/C=C(\C)[C@@H](O)[C@@H](OC)C(=O)[C@H](C)C[C@H](C)/C=C/C=C/C=C/1C [EVEROLIMUS] | > 30 µM (inactive) |
| > 30 µM (inactive) | > 30 µM (inactive) | > 30 µM (inactive) | > 30 µM (inactive) | > 30 µM (inactive) | COCCNCc1ccc(-c2cc3nccc(Oc4ccc(NC(=S)NC(=O)Cc5ccc(F)cc5)cc4F)c3s2)nc1 [GLESATINIB] | > 30 µM (inactive) |
| > 30 µM (inactive) | > 30 µM (inactive) | > 30 µM (inactive) | > 30 µM (inactive) | > 30 µM (inactive) | O=C1NC(=O)/C(=C/c2ccc3nccc(-c4ccncc4)c3c2)S1 [GSK-1059615] | > 30 µM (inactive) |
| > 30 µM (inactive) | > 30 µM (inactive) | > 30 µM (inactive) | > 30 µM (inactive) | > 30 µM (inactive) | CC[C@H](Nc1ncnc2[nH]cnc12)c1nc2cccc(F)c2c(=O)n1-c1ccccc1 [IDELALISIB] | > 30 µM (inactive) |
| > 30 µM (inactive) | > 30 µM (inactive) | > 30 µM (inactive) | > 30 µM (inactive) | > 30 µM (inactive) | COc1cc2nccc(Oc3ccc(NC(=O)NC4CC4)c(Cl)c3)c2cc1C(N)=O [LENVATINIB] | > 30 µM (inactive) |
| > 30 µM (inactive) | > 30 µM (inactive) | > 30 µM (inactive) | > 30 µM (inactive) | > 30 µM (inactive) | Cc1c(F)cc(C(=O)NC2CC2)cc1-c1ccc(C(=O)NCC(C)(C)C)cn1 [LOSMAPIMOD] | > 30 µM (inactive) |
| > 30 µM (inactive) | > 30 µM (inactive) | > 30 µM (inactive) | > 30 µM (inactive) | > 30 µM (inactive) | O=C(O)[C@]1(Cc2cccc(Nc3nccs3)n2)CC[C@@H](Oc2cccc(Cl)c2F)CC1 [MK-5108] | > 30 µM (inactive) |
| > 30 µM (inactive) | > 30 µM (inactive) | > 30 µM (inactive) | > 30 µM (inactive) | > 30 µM (inactive) | CNC(=O)c1ccc(C)c(-n2c(C)cc(OCc3ccc(F)cc3F)c(Br)c2=O)c1 [PH-797804] | > 30 µM (inactive) |
| > 30 µM (inactive) | > 30 µM (inactive) | > 30 µM (inactive) | > 30 µM (inactive) | > 30 µM (inactive) | CNC(=O)c1cc(Oc2ccc(NC(=O)Nc3ccc(Cl)c(C(F)(F)F)c3)c(F)c2)ccn1 [REGORAFENIB] | > 30 µM (inactive) |
| > 30 µM (inactive) | > 30 µM (inactive) | > 30 µM (inactive) | > 30 µM (inactive) | > 30 µM (inactive) | CN(C)C(=O)c1cc2cnc(Nc3ccc(N4CCNCC4)cn3)nc2n1C1CCCC1 [RIBOCICLIB] | > 30 µM (inactive) |

Second part, the compound before the results:

| Compound | Kd [1] | Kd [2] | Kd [3] | Kd [4] | Kd [6] | Kd [5] |
| --- | --- | --- | --- | --- | --- | --- |
| C[C@@H](Nc1cc(F)cc(F)c1)c1cc(C(=O)N(C)C)cc2c(=O)cc(N3CCOCC3)oc12 [AZD-8186] | > 30 µM (inactive) | > 30 µM (inactive) | > 30 µM (inactive) | > 30 µM (inactive) | > 30 µM (inactive) | > 30 µM (inactive) |
| Cc1ccc(NC(=O)c2ccc(CN3CC[C@H](N(C)C)C3)c(C(F)(F)F)c2)cc1Nc1nccc(-c2cncnc2)n1 [BAFETINIB] | > 30 µM (inactive) | > 30 µM (inactive) | > 30 µM (inactive) | > 30 µM (inactive) | 2.15 µM (active) | > 30 µM (inactive) |
| CCS(=O)(=O)N1CC(CC#N)(n2cc(-c3ncnc4[nH]ccc34)cn2)C1 [BARICITINIB] | > 30 µM (inactive) | > 30 µM (inactive) | > 30 µM (inactive) | 4.36 µM (active) | > 30 µM (inactive) | > 30 µM (inactive) |
| Cc1cc2c(F)c(Oc3ncnn4cc(OC[C@@H](C)OC(=O)[C@H](C)N)c(C)c34)ccc2[nH]1 [BRIVANIB ALANINATE] | > 30 µM (inactive) | > 30 µM (inactive) | > 30 µM (inactive) | > 30 µM (inactive) | > 30 µM (inactive) | > 30 µM (inactive) |
| CNC(=O)c1ccc(-c2cnc3ncc(Cc4ccc5ncccc5c4)n3n2)cc1F [CAPMATINIB] | > 30 µM (inactive) | > 30 µM (inactive) | > 30 µM (inactive) | > 30 µM (inactive) | > 30 µM (inactive) | > 30 µM (inactive) |
| O=C(c1ccc(F)c(F)c1Nc1ccc(I)cc1F)N1CC(O)([C@@H]2CCCCN2)C1 [COBIMETINIB] | > 30 µM (inactive) | > 30 µM (inactive) | > 30 µM (inactive) | > 30 µM (inactive) | > 30 µM (inactive) | > 30 µM (inactive) |
| COC(=O)N[C@@H](C)CNc1nccc(-c2cn(C(C)C)nc2-c2cc(Cl)cc(NS(C)(=O)=O)c2F)n1 [ENCORAFENIB] | > 30 µM (inactive) | > 30 µM (inactive) | > 30 µM (inactive) | > 30 µM (inactive) | > 30 µM (inactive) | > 30 µM (inactive) |
| COC(=O)[C@@]1(O)C[C@H]2O[C@]1(C)n1c3ccccc3c3c4c(c5c6ccccc6n2c5c31)C(=O)NC4 [K-252A] | > 30 µM (inactive) | 1.16 µM (active) | > 30 µM (inactive) | > 30 µM (inactive) | > 30 µM (inactive) | > 30 µM (inactive) |
| Cc1ccc(-n2nc(C(C)(C)C)cc2NC(=O)NCc2cc(F)ccc2Oc2ccc3c(cnn3CCO)c2)cc1 [PEXMETINIB] | > 30 µM (inactive) | > 30 µM (inactive) | > 30 µM (inactive) | > 30 µM (inactive) | > 30 µM (inactive) | > 30 µM (inactive) |
| C=CC(=O)N1CCC(Oc2cc3c(Nc4ccc(Cl)c(Cl)c4F)ncnc3cc2OC)CC1 [POZIOTINIB] | > 30 µM (inactive) | > 30 µM (inactive) | > 30 µM (inactive) | > 30 µM (inactive) | > 30 µM (inactive) | > 30 µM (inactive) |
